# Laboratory results: patent US10479795B2 (Incyte Corporation, priority 2016, dated 2019)
# Structures can show the parent of a compound that is named as a salt. Where two headings read alike, the source gives them in different places.
# Legend:
# [1] = biological target: PI3Kγ (p110γ) Recombinant Human Protein (Homo sapiens (Human), UniProt P48736); test: PI3K-γ Scintillation Proximity Assay; format: biochemical; conditions: read-out: PI3Kγ IC50
# Method in brief: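 Recombinant human p110γ assayed at room temperature in 20 mM MOPS pH 6.7, 10 mM MgCl2, 5 mM DTT, 0.03% CHAPS, 2% DMSO, with 20 μM PIP2 and 2 μM ATP plus [γ-33P]ATP. Product captured on WGA SPA beads overnight and counted; IC50 fitted from % of solvent-control activity versus log inhibitor concentration.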
# [2] = system: Phosphorylated Ribosomal Protein S6 (RPS6); test: THP-1 RPS6 ELISA Assay; format: cell-based, Human; conditions: THP-1 cells, read-out: PI3Kγ_THP1_RPS6_ELISA IC50
# Method in brief: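 Serum-starved THP-1 cells were preincubated with a concentration range of compound for 2 h at 37 °C, then stimulated with 10 nM MCP-1 for 15 min. Phospho-RPS6 in lysates was quantified by ELISA at 450 nm. IC50 came from percent inhibition versus log inhibitor concentration.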
# [3] = biological target: PI3Kδ (p110δ/p85α) Recombinant Human Protein (Homo sapiens (Human), UniProt O00329); test: PI3Kδ Scintillation Proximity Assay; format: biochemical
# Method in brief: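 Recombinant human p110δ/p85α (3.4 nM) with 20 μM PIP2 and 2 μM ATP plus [γ-33P]ATP, in 20 mM MOPS pH 6.7, 10 mM MgCl2, 5 mM DTT, 0.03% CHAPS, 2% DMSO; 120 min at room temperature. Product captured on WGA SPA beads, scintillation counted; IC50 from percent-of-control curves.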
# Sequence of PI3Kδ (p110δ/p85α) Recombinant Human Protein (O00329 whole entry): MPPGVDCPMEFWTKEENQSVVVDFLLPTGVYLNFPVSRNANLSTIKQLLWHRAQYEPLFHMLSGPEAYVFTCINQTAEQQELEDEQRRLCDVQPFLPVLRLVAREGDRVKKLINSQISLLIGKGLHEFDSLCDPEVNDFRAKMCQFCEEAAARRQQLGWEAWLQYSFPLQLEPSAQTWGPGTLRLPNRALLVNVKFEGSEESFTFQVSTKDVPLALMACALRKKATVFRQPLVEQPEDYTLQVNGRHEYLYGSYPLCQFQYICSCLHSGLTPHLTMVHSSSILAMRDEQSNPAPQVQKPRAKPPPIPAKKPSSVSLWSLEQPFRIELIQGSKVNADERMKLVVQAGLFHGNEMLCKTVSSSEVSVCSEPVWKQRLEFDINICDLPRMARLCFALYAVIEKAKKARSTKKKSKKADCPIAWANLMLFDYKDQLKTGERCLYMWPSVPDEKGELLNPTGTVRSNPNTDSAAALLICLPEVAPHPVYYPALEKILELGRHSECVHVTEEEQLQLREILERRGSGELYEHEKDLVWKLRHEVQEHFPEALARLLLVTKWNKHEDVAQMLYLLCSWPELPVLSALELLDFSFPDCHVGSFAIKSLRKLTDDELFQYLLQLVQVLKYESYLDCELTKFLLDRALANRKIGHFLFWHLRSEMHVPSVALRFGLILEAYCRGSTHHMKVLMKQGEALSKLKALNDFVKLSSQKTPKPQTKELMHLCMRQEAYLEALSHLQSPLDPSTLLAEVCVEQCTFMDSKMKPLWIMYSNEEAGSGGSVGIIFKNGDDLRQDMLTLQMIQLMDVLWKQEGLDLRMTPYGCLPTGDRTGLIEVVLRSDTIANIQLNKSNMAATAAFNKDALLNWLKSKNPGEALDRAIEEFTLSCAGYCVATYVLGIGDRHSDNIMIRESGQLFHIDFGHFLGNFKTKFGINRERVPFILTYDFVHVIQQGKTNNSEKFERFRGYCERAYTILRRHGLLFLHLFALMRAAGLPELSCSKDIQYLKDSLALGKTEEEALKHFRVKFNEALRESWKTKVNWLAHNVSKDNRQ
# Sequence of PI3Kδ (p110δ/p85α) Recombinant Human Protein (P27986 whole entry partner): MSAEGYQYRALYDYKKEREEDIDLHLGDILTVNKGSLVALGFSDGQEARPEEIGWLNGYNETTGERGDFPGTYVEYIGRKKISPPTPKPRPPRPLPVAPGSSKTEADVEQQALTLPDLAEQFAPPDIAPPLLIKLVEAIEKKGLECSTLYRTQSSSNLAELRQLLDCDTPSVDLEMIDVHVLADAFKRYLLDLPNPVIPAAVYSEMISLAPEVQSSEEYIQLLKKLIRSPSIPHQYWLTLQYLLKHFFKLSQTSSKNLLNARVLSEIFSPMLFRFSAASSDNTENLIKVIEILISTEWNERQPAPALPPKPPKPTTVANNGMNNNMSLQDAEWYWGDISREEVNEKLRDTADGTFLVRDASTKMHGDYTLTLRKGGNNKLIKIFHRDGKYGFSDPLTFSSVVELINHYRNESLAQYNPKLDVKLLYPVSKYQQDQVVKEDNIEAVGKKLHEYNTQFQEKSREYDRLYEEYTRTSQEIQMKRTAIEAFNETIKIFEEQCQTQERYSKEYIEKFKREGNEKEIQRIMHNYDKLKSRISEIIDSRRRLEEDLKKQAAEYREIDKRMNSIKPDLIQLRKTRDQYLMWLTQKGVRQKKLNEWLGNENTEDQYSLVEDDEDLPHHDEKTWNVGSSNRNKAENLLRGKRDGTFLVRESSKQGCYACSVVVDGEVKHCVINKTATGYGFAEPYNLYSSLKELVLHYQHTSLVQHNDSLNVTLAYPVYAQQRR
# Sequence of PI3Kγ (p110γ) Recombinant Human Protein (P48736 whole entry): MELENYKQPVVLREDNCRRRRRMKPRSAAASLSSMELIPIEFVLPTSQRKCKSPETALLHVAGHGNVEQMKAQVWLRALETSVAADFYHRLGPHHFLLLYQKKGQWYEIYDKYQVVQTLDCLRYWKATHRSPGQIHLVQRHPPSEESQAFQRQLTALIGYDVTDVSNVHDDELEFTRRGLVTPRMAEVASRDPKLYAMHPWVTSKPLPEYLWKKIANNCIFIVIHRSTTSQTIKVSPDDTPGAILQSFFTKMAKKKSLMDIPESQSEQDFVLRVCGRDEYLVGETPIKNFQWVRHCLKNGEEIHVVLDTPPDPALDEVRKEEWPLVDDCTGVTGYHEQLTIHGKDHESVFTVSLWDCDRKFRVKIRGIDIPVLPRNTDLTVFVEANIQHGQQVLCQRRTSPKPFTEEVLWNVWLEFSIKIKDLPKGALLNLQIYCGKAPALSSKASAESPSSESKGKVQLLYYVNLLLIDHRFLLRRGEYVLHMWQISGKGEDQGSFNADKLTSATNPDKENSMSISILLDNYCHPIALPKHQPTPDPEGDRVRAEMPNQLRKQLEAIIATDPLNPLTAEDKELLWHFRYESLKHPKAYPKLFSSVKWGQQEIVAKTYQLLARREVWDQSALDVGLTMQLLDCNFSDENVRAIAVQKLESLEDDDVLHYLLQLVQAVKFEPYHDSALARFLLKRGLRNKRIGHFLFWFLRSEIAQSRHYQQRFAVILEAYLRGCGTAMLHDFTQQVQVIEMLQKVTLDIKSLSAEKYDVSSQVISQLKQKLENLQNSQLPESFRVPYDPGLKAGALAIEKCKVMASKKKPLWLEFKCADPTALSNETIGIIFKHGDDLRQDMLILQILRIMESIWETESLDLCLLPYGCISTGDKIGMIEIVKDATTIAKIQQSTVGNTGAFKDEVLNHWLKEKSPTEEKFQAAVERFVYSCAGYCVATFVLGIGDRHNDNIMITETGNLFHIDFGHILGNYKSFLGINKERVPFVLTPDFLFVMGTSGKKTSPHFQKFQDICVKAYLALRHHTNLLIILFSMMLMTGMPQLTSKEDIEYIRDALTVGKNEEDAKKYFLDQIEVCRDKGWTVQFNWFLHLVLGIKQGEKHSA
Compound,IC50 [1] [nM],IC50 ([2]; Homo sapiens) [nM],IC50 [3] [nM],IC50 [2] [nM]
"Cc1ccc(S(=O)(=O)NC23CC(C(N)=O)(C2)C3)cc1-c1cnc2c(N)nc(C(F)(F)F)cn12 [Example 288, 3-(3-(8-Amino-6-(trifluoromethyl)imidazo[1,2-a]pyrazin-3-yl)-4-methylphenylsulfonamido)bicyclo[1.1.1]pentane-1-carboxamide trifluoroacetate salt]",< 100,100 to 500,100 to 500,
"Cc1ccc(S(=O)(=O)NC23CC(CN4CCOCC4)(C2)C3)cc1-c1cnc2c(N)nc(C(F)(F)F)cn12 [Example 289, 3-(8-Amino-6-(trifluoromethyl)imidazo[1,2-a]pyrazin-3-yl)-4-methyl-N-(3-(morpholinomethyl)bicyclo[1.1.1]pentan-1-yl)benzenesulfonamide trifluoroacetate salt]",< 100,100 to 500,100 to 500,
"Cc1ccc(S(=O)(=O)NC23CC(C(=O)O)(C2)C3)cc1-c1cnc2c(N)nc(C(F)(F)F)cn12 [Example 290, 3-(3-(8-Amino-6-(trifluoromethyl)imidazo[1,2-a]pyrazin-3-yl)-4-methylphenylsulfonamido)bicyclo[1.1.1]pentane-1-carboxylic acid trifluoroacetate salt]",< 100,> 1000,500 to 2000,
"Cc1ccc(S(=O)(=O)NC23CCC(C(N)=O)(C2)C3)cc1-c1cnc2c(N)nc(C(F)(F)F)cn12 [Example 291, 4-(3-(8-Amino-6-(trifluoromethyl)imidazo[1,2-a]pyrazin-3-yl)-4-methylphenylsulfonamido)bicyclo[2.1.1]hexane-1-carboxamide trifluoroacetate salt]",< 100,500 to 1000,100 to 500,
"Cc1ccc(S(=O)(=O)NC23CC(c4nnn[nH]4)(C2)C3)cc1-c1cnc2c(N)nc(C(F)(F)F)cn12 [Example 292, N-(3-(1H-Tetrazol-5-yl)bicyclo[1.1.1]pentan-1-yl)-3-(8-amino-6-(trifluoromethyl)imidazo[1,2-a]pyrazin-3-yl)-4-methylbenzenesulfonamide trifluoroacetate salt]",< 100,> 1000,500 to 2000,
"Cc1noc(C23CC(NS(=O)(=O)c4ccc(C)c(-c5cnc6c(N)nc(C(F)(F)F)cn56)c4)(C2)C3)n1 [Example 293, 3-(8-Amino-6-(trifluoromethyl)imidazo[1,2-a]pyrazin-3-yl)-4-methyl-N-(3-(3-methyl-1,2,4-oxadiazol-5-yl)bicyclo[1.1.1]pentan-1-yl)benzenesulfonamide trifluoroacetate salt]",< 100,100 to 500,100 to 500,
"Cc1ccc(S(=O)(=O)NC23CC(c4nccn4C)(C2)C3)cc1-c1cnc2c(N)nc(C(F)(F)F)cn12 [Example 294, 3-(8-Amino-6-(trifluoromethyl)imidazo[1,2-a]pyrazin-3-yl)-4-methyl-N-(3-(1-methyl-1H-imidazol-2-yl)bicyclo[1.1.1]pentan-1-yl)benzenesulfonamide trifluoroacetate salt]",< 100,> 1000,500 to 2000,
"Cc1ccc(S(=O)(=O)NC23CC(c4ncno4)(C2)C3)cc1-c1cnc2c(N)nc(C(F)(F)F)cn12 [Example 295, N-(3-(1,2,4-Oxadiazol-5-yl)bicyclo[1.1.1]pentan-1-yl)-3-(8-amino-6-(trifluoromethyl)imidazo[1,2-a]pyrazin-3-yl)-4-methylbenzenesulfonamide trifluoroacetate salt]",< 100,> 1000,500 to 2000,
"Cc1ccc(S(=O)(=O)NC23CC(N4CCOCC4)(C2)C3)cc1-c1cnc2c(N)nc(C(F)(F)F)cn12 [Example 296, 3-(8-Amino-6-(trifluoromethyl)imidazo[1,2-a]pyrazin-3-yl)-4-methyl-N-(3-morpholinobicyclo[1.1.1]pentan-1-yl)benzenesulfonamide trifluoroacetate salt]",< 100,100 to 500,500 to 2000,
"Cc1ccc(S(=O)(=O)N(C)[C@H]2CN(C)C[C@@H]2O)cc1-c1cnc2c(N)nc(C(F)(F)F)cn12 [Example 299, 3-(8-amino-6-(trifluoromethyl)imidazo[1,2-a]pyrazin-3-yl)-N-((3S,4S)-4-hydroxy-1-methylpyrrolidin-3-yl)-N,4-dimethylbenzenesulfonamide]",< 100,100 to 500,100 to 500,
"Cc1ccc(S(=O)(=O)N(CCC#N)C2CCCCC2)cc1-c1cnc2c(N)nc(C(F)(F)F)cn12 [Example 301, 3-(8-amino-6-(trifluoromethyl)imidazo[1,2-a]pyrazin-3-yl)-N-(2-cyanoethyl)-N-cyclohexyl-4-methylbenzenesulfonamide]",< 100,100 to 500,500 to 2000,
"Cc1ccc(S(=O)(=O)N2CC[C@H](N)C2)cc1-c1cnc2c(N)nc(C(F)(F)F)cn12 [Example 305, (S)-3-(5-((3-aminopyrrolidin-1-yl)sulfonyl)-2-methylphenyl)-6-(trifluoromethyl)imidazo[1,2-a]pyrazin-8-amine bis(trifluoroacetate)]",< 100,> 1000,100 to 500,
"Cc1ccc(S(=O)(=O)N2C[C@@H](C)C[C@@H](N)C2)cc1-c1cnc2c(N)nc(C(F)(F)F)cn12 [Example 306, 3-(5-(((3R,5S)-3-amino-5-methylpiperidin-1-yl)sulfonyl)-2-methylphenyl)-6-(trifluoromethyl)imidazo[1,2-a]pyrazin-8-amine]",< 100,< 100,< 100,
"Cc1ccc(S(=O)(=O)N2C[C@H](N)C[C@H](C(F)(F)F)C2)cc1-c1cnc2c(N)nc(C(F)(F)F)cn12 [Example 307, 3-(5-(((3R,5S)-3-amino-5-(trifluoromethyl)piperidin-1-yl)sulfonyl)-2-methylphenyl)-6-(trifluoromethyl)imidazo[1,2-a]pyrazin-8-amine]",< 100,100 to 500,< 100,
"Cc1ccc(S(=O)(=O)N2CC[C@@H](F)[C@@H](N)C2)cc1-c1cnc2c(N)nc(C(F)(F)F)cn12 [Example 308, 3-(5-(((3S,4R)-3-amino-4-fluoropiperidin-1-yl)sulfonyl)-2-methylphenyl)-6-(trifluoromethyl)imidazo[1,2-a]pyrazin-8-amine]",< 100,< 100,< 100,
"Cc1ccc(S(=O)(=O)N2CCC[C@@H](N(C)C)C2)cc1-c1cnc2c(N)nc(C(F)(F)F)cn12 [Example 309, (R)-3-(5-((3-(dimethylamino)piperidin-1-yl)sulfonyl)-2-methylphenyl)-6-(trifluoromethyl)imidazo[1,2-a]pyrazin-8-amine]",< 100,100 to 500,500 to 2000,
"Cc1ccc(S(=O)(=O)N[C@H]2CC[C@H](O)CC2)cc1-c1cnc2c(N)nc(C(F)(F)F)cn12 [Example 310, 3-(8-Amino-6-(trifluoromethyl)imidazo[1,2-a]pyrazin-3-yl)-N-(trans-4-hydroxycyclohexyl)-4-methylbenzenesulfonamide]",< 100,< 100,100 to 500,
Cc1ccc(S(=O)(=O)N[C@H]2CC[C@H](CO)OC2)cc1-c1cnc2c(N)nc(C(F)(F)F)cn12 [Example 311],< 100,,100 to 500,< 100
"Cc1ccc(S(=O)(=O)N2CCCC(C)(CO)C2)cc1-c1cnc2c(N)nc(C(F)(F)F)cn12 (stereo not drawn) [Example 312, (1-((3-(8-Amino-6-(trifluoromethyl)imidazo[1,2-a]pyrazin-3-yl)-4-methylphenyl)sulfonyl)-3-methylpiperidin-3-yl)methanol]",< 100,100 to 500,100 to 500,
"Cc1ccc(S(=O)(=O)N2CCCC(C#N)C2)cc1-c1cnc2c(N)nc(C(F)(F)F)cn12 (stereo not drawn) [Example 314, 1-((3-(8-Amino-6-(trifluoromethyl)imidazo[1,2-a]pyrazin-3-yl)-4-methylphenyl)sulfonyl)piperidine-3-carbonitrile]",< 100,100 to 500,100 to 500,
"Cc1ccc(S(=O)(=O)NCC2(F)COC2)cc1-c1cnc2c(N)nc(C(F)(F)F)nn12 [Example 315, 3-(4-Amino-2-(trifluoromethyl)imidazo[1,2-f][1,2,4]triazin-7-yl)-N-((3-fluorooxetan-3-yl)methyl)-4-methylbenzenesulfonamide trifluoroacetate salt]",< 100,,< 100,< 100
"Cc1ccc(S(=O)(=O)NCC2(O)COC2)cc1-c1cnc2c(N)nc(C(F)(F)F)nn12 [Example 316, 3-(4-Amino-2-(trifluoromethyl)imidazo[1,2-f][1,2,4]triazin-7-yl)-N-((3-hydroxyoxetan-3-yl)methyl)-4-methylbenzenesulfonamide trifluoroacetate salt]",< 100,,100 to 500,< 100
"Cc1ccc(S(=O)(=O)NCC(C)(C)O)cc1-c1cnc2c(N)nc(C(F)(F)F)nn12 [Example 317, 3-(4-Amino-2-(trifluoromethyl)imidazo[1,2-f][1,2,4]triazin-7-yl)-N-(2-hydroxy-2-methylpropyl)-4-methylbenzenesulfonamide trifluoroacetate salt]",< 100,,100 to 500,< 100
